Test results from article PMC11513892, “Discovery of a Series of Macrocycles as Potent Inhibitors of Leishmania Infantum” (Journal of Medicinal Chemistry, 2024).
Like-named read-outs stand apart in the source and are kept apart here.

How the values were obtained:
[1] = system: MDR1; test: in vitro; assay type: in vitro ADME, canine; conditions: dog; for Papp B→A: MDCK-MDR1, pH 7.4; for Papp A→B: MDCK-MDR1, pH 7.4, Papp AB
Protocol: (§1) The potency of macrocycles 1–12 to inhibit the growth of L. infantum was determined in a phenotypic assay in which the parasite was grown in primary peritoneal mouse macrophages (PMMs). To understand whether the SAR for inhibition of parasitic growth is impacted by low cell permeability, the permeability of compounds 1–12 was determined separately. Madin-Darby canine kidney (MDCK) cells transfected with the human MDR1 (multidrug resistance 1) gene (MDCK-MDR1 cells) were used to determine permeabilities in the apical to basolateral direction (Papp AB) as well as efflux ratios (ERs). […] Lipophilicity (Log D at pH 7.4), aqueous kinetic solubility and mouse liver microsomal metabolism were also determined for 1–12, and are discussed separately (cf. physiochemical properties and ADMET, below).
(§2) The kinetic solubility in phosphate buffered saline at pH 7.4, chromatographic Log D at pH 7.4, cell permeability across a MDCK-MDR1 cell monolayer at pH 7.4, and the clearance in mouse liver microsomes of 1–12 was determined at TCG Lifesciences.

[2] = system: T. b. rhodesiense; test: Growth of T. b. rhodesiense trypomastigotes in axenic culture; assay type: cell-based, Trypanosoma brucei rhodesiense; conditions: for EC50: Trypanosoma brucei, RHODESIENSE / STIB900, CSV supplement, decimal comma, read-out: EC50 T.b. rhodesiense STIB 900; for activity as inhibitor of T. b. rhodesiense (in words): text on Table S1
From the text: (§3) We previously reported the synthesis of a series of macrocycles, including 1 (Figure 2A), designed to investigate how structural features influence molecular chameleonicity.[15],[21] Originating from the structural similarities between 1 and hymenocardine, we investigated 1 in screens for P. falciparum and four kinetoplastid parasites: T. b. brucei, T. b. rhodesiense, T. cruzi, and L. infantum. In the screens, we also included compounds 2 and 3 (Figure 2A), which were obtained from an intermediate late in the synthetic route to 1. Since very few validated protein targets relevant to clearance of parasites are known, phenotypic assays were used to investigate the antiparasitic activity for all five parasites. For malaria, the P. falciparum blood stage 3D7 strain was used to test the three compounds. For the two Trypanosoma brucei species, the reduction in trypomastigote growth in culture medium was determined after the addition of 1–3. For T. cruzi, the intracellular parasite growth in infected human fibroblasts (MRC-5 cell line) was assessed in the presence and absence of the three inhibitors. Similarly, the growth of L. infantum was assessed in infected primary mouse macrophages (PMMs) in the presence and absence of the inhibitors. […] The assays for T. cruzi and L. infantum are complex, i.e., they determine the degree of inhibition of parasitic replication in a mammalian cell line; this complexity may lead to a high variability for some compounds.
(§4) The growth of the P. falciparum blood stage 3D7 strain,[53] the two T. brucei species in axenic cultures,[54]T. cruzi in infected human fibroblasts (MRC-5 cell line),[55] and of L. infantum in infected primary mouse macrophages (PMMs)[56] was determined as previously reported in the presence and absence of inhibitors 1–12.

[3] = system: L. infantum; test: Growth of L. infantum in infected primary mouse macrophages (PMMs), phenotypic assay; assay type: cell-based, Leishmania infantum; conditions: for EC50: Leishmania infantum, Macrophage
From the text: as §3, §1, §4

[4] = system: MRC-5 cells; test: Host cell cytotoxicity in MRC-5 cells; assay type: cell-based, human; conditions: CSV supplement; decimal comma
[5] = Kinetic solubility in phosphate buffered saline at pH 7.4; assay type: physicochemical
Protocol: as §2

[6] = Clearance in human microsomes; assay type: in vitro ADME; conditions: CSV supplement; for microsomal CLint: human, microsomes, read-out: CLint in vitro Human Microsomes
From the text: Supplement jm4c01370_si_002.csv, table | column: CLint in vitro Human Microsomes µL/min/mg; t(1/2) min

[7] = system: T. cruzi; test: Intracellular growth of T. cruzi in infected human fibroblasts (MRC-5 cell line); assay type: cell-based; conditions: Trypanosoma cruzi
From the text: as §3, §4

[8] = system: T. b. brucei; test: Growth of T. b. brucei trypomastigotes in axenic culture; assay type: cell-based; conditions: Trypanosoma brucei
From the text: as §3, §4

[9] = Clearance in mouse liver microsomes; assay type: in vitro ADME; conditions: for microsomal CLint: mouse, liver microsomes
Protocol: as §2

[10] = Chromatographic Log D at pH 7.4; assay type: physicochemical; conditions: 1-octanol/PBS pH 7.4, determined by chromatography, mean of two measurements
Protocol: as §2

[11] = system: primary mouse macrophages (PMMs); test: Host cell cytotoxicity in primary mouse macrophages (PMM); assay type: cell-based; conditions: CSV supplement; decimal comma
[12] = system: P. falciparum blood stage 3D7 strain; test: Growth of P. falciparum blood stage 3D7 strain (phenotypic); assay type: cell-based, Plasmodium falciparum; conditions: Figure 2A; for EC50: Plasmodium falciparum, 3D7, mean (SD) from 2 to 14 measurements
From the text: as §3, §4

[13] = MDCK-MDR1, pH 7.4, ER, efflux ratio (BA/AB)
[14] = MDCK-MDR1, pH 7.4, MDCK MDR1 - pH 7.4 Efflux Ratio
[15] = Table 1, mean (standard deviation, number of measurements), read-out: EC50 (μM), inhibition of the growth of L. infantum
[16] = phosphate buffered saline, pH 7.4, CSV supplement, read-out: Kinetic solubility
[17] = phosphate buffered saline, pH 7.4, phosphate buffered saline pH 7.4, assay range 2.5–200 μM, read-out: solubility (kinetic)
[18] = TULAHUEN, MRC5, read-out: EC50 T. cruzi Tulahuen C4 (LacZ)
[19] = CSV supplement, decimal comma, read-out: EC50 T.b. brucei Squib 427
[20] = CSV supplement, read-out: CLint in vitro Mouse Microsomes
[21] = incubation with mouse liver microsomes, read-out: CLint
[22] = CSV supplement, decimal comma, read-out: EC50 L. infantum MHOM/MA(BE)/67
[23] = MRC5, Table S1, mean (SD), 2 to 14 measurements, unit not given in Table S1, read-out: In vitro potency, T. cruzi

CC(C)C[C@@H]1NC(=O)[C@@H](NC(=O)OC(C)(C)C)Cc2ccc(cc2)Oc2ccc(cc2NC(=O)c2ccccn2)C(=O)CNC1=O [Compound 10, tert-Butyl ((8S,11S)-8-Isobutyl-4,7,10-trioxo-3^2-(picolinamido)-2-oxa-6,9-diaza-1,3(1,4)-dibenzenacyclododecaphane-11-yl)carbamate]
Papp B→A [1]: 6.8 ×10⁻⁶ cm/s
efflux ratio [1, 13]: 3.1
efflux ratio [1, 14]: 3.1
Papp A→B [1]: 2.2 ×10⁻⁶ cm/s
EC50 [2]: 2.1 µM
activity as inhibitor of T. b. rhodesiense (in words) [2]: moderately active
EC50 [3, 15]: 2.1 µM
MRC-5 cells Human Lung Fibroblast Cells (cytotoxicity) [4]: >64 µM
solubility kinetic [5, 16]: 4.8 µg/mL
solubility kinetic [5, 17]: 7.6 µM
t(1/2), Human Microsomes [6]: 4,8 min
microsomal CLint [6]: 361 µL/min/mg
EC50 [7, 18]: 50 µM
EC50 [8, 19]: 8.5 µM
t(1/2), Mouse Microsomes ([9]; CSV supplement): <3 min
microsomal CLint [9, 20]: > 578 µL/min/mg
microsomal CLint [9, 21]: > 580 µL/min/mg
chromatographic logD [10]: 4.8
PMM Primary Mouse Macrophages (inf-LMPH) (cytotoxicity) [11]: >64 µM

CC(C)(C)OC(=O)N[C@H]1CCc2ccc(cc2)Oc2ccc(cc2NC(=O)c2ccccn2)C(=O)CNC(=O)[C@H](Cc2ccccc2)NC1=O [Compound 5, tert-Butyl ((8S,11S)-8-Benzyl-4,7,10-trioxo-3^2-(picolinamido)-2-oxa-6,9-diaza-1,3(1,4)-dibenzenacyclotridecaphane-11-yl)carbamate]
Papp B→A [1]: 17.3 ×10⁻⁶ cm/s
efflux ratio [1, 13]: 13
efflux ratio [1, 14]: 13.2
Papp A→B [1]: 1.3 ×10⁻⁶ cm/s
EC50 [2]: 5.6 µM
EC50 [3, 22]: 16.6 µM
EC50 [3, 15]: 17 µM
loss in potency compared to 3, L. infantum ([3]; relative to compound 3): ~10 fold
MRC-5 cells Human Lung Fibroblast Cells (cytotoxicity) [4]: >64 µM
solubility kinetic [5, 16]: 1.8 µg/mL
solubility kinetic [5, 17]: 2.7 µM
t(1/2), Human Microsomes [6]: <3 min
microsomal CLint [6]: > 578 µL/min/mg
EC50 [7, 18]: 18 µM
EC50 [8, 19]: 7.4 µM
t(1/2), Mouse Microsomes ([9]; CSV supplement): <3 min
microsomal CLint [9, 20]: > 578 µL/min/mg
microsomal CLint [9, 21]: > 580 µL/min/mg
chromatographic logD [10]: 4.8
PMM Primary Mouse Macrophages (inf-LMPH) (cytotoxicity) [11]: >64 µM

CC(C)(C)OC(=O)N[C@H]1Cc2ccc(cc2)Oc2ccc(cc2NC(=O)c2ccccn2)C(=O)CNC(=O)[C@H](c2ccccc2)NC1=O [Compound 9, tert-Butyl ((8S,11S)-4,7,10-Trioxo-8-phenyl-3^2-(picolinamido)-2-oxa-6,9-diaza-1,3(1,4)-dibenzenacyclododecaphane-11-yl)carbamate]
Papp B→A [1]: 4.2 ×10⁻⁶ cm/s
efflux ratio [1, 13]: 9.9
efflux ratio [1, 14]: 9.9
Papp A→B [1]: 0.4 ×10⁻⁶ cm/s
EC50 [2]: 1.9 µM
activity as inhibitor of T. b. rhodesiense (in words) [2]: moderately active
EC50 [3, 15]: 6.6 µM
MRC-5 cells Human Lung Fibroblast Cells (cytotoxicity) [4]: >64 µM
solubility kinetic [5, 16]: 10.3 µg/mL
solubility kinetic [5, 17]: 16 µM
t(1/2), Human Microsomes [6]: 8,8 min
microsomal CLint [6]: 197 µL/min/mg
EC50 [7, 23]: 19 µM
EC50 [7, 18]: 18.9 µM
EC50 [8, 19]: 7.7 µM
t(1/2), Mouse Microsomes ([9]; CSV supplement): 8,4 min
microsomal CLint [9, 20]: 206 µL/min/mg
microsomal CLint [9, 21]: 210 µL/min/mg
chromatographic logD [10]: 4.4
PMM Primary Mouse Macrophages (inf-LMPH) (cytotoxicity) [11]: >64 µM

COc1ccc(C[C@H](NC(=O)OC(C)(C)C)C(=O)N[C@@H](Cc2ccccc2)C(=O)NCC(=O)c2cccc(NC(=O)c3ccccn3)c2)cc1 [Compound 4, tert-Butyl ((S)-3-(4-Methoxyphenyl)-1-oxo-1-(((S)-1-oxo-1-((2-oxo-2-(3-(picolinamido)phenyl)ethyl)amino)-3-phenylpropan-2-yl)amino)propan-2-yl)carbamate]
Papp B→A [1]: 2.4 ×10⁻⁶ cm/s
EC50 [2]: 6.1 µM
EC50 [3, 15]: 38 µM
activity in the L. infantum phenotypic screen (in words) ([3]; Table 1): inactive
MRC-5 cells Human Lung Fibroblast Cells (cytotoxicity) [4]: >64 µM
solubility kinetic [5, 16]: 4.9 µg/mL
solubility kinetic [5, 17]: 7.3 µM
t(1/2), Human Microsomes [6]: <3 min
microsomal CLint [6]: > 578 µL/min/mg
EC50 [7, 23]: 64 µM
EC50 [7, 18]: > 64 µM
EC50 [8, 19]: 32.7 µM
EC50 ([8]; Table S1, mean (SD), 2 to 14 measurements, unit not given in Table S1, read-out: In vitro potency, T. b. brucei): 33 µM
t(1/2), Mouse Microsomes ([9]; CSV supplement): <3 min
microsomal CLint [9, 20]: > 578 µL/min/mg
microsomal CLint [9, 21]: > 580 µL/min/mg
chromatographic logD [10]: 4.7
PMM Primary Mouse Macrophages (inf-LMPH) (cytotoxicity) [11]: >64 µM

CC(=O)Nc1cc2ccc1Oc1ccc(cc1)C[C@H](NC(=O)OC(C)(C)C)C(=O)N[C@@H](Cc1ccccc1)C(=O)NCC2=O [Compound 2]
Papp B→A [1]: 13.3 ×10⁻⁶ cm/s
efflux ratio [1, 13]: 19
efflux ratio [1, 14]: 19.3
Papp A→B [1]: 0.7 ×10⁻⁶ cm/s
EC50 [2]: 29 µM
EC50 [3, 15]: 31 µM
MRC-5 cells Human Lung Fibroblast Cells (cytotoxicity) [4]: 50,5 µM
solubility kinetic ([5]; phosphate buffered saline pH 7.4, assay range 2.5–200 μM, read-out: solubility (kinetic)): 169 µM
solubility kinetic [5, 16]: 101 µg/mL
solubility kinetic [5, 17]: > 100 µM
t(1/2), Human Microsomes [6]: 6,1 min
microsomal CLint [6]: 285 µL/min/mg
EC50 [7, 18]: 41 µM
EC50 [8, 19]: 37 µM
t(1/2), Mouse Microsomes ([9]; CSV supplement): 6,0 min
microsomal CLint [9, 20]: 257 µL/min/mg
microsomal CLint [9, 21]: 260 µL/min/mg
potency as inhibitor of P. falciparum (in words) [12]: low or no potency
EC50 [12]: > 25 µM
chromatographic logD [10]: 3.2
PMM Primary Mouse Macrophages (inf-LMPH) (cytotoxicity) [11]: >64 µM

CC(C)(C)OC(=O)N[C@H]1Cc2ccc(cc2)Oc2ccc(cc2)C(=O)CNC(=O)[C@H](Cc2ccccc2)NC1=O [Compound 1]
Papp B→A [1]: 21.4 ×10⁻⁶ cm/s
efflux ratio [1, 13]: 4.3
efflux ratio [1, 14]: 4.3
Papp A→B [1]: 5 ×10⁻⁶ cm/s
EC50 [2]: 6 µM
EC50 [3, 22]: 32.8 µM
EC50 [3, 15]: 33 µM
MRC-5 cells Human Lung Fibroblast Cells (cytotoxicity) [4]: >64 µM
solubility kinetic [5, 16]: 24 µg/mL
solubility kinetic [5, 17]: 44 µM
t(1/2), Human Microsomes [6]: 3,5 min
microsomal CLint [6]: 497 µL/min/mg
EC50 ([7]; MRC5, Figure 2A, mean (SD) from 2 to 14 measurements, read-out: EC50 T. cruzi): 10 to 30 µM
EC50 [7, 23]: 15 µM
EC50 [7, 18]: 14.6 µM
EC50 [8, 19]: 6.1 µM
t(1/2), Mouse Microsomes ([9]; CSV supplement): <3 min
microsomal CLint [9, 20]: > 578 µL/min/mg
microsomal CLint [9, 21]: > 580 µL/min/mg
potency as inhibitor of P. falciparum (in words) [12]: low or no potency
EC50 [12]: 21 µM
chromatographic logD [10]: 4
PMM Primary Mouse Macrophages (inf-LMPH) (cytotoxicity) [11]: 48,0 µM
